Legend:
[1] = target: T domain of diphtheria toxin (Corynephage beta, UniProt P00588); assay: biochemical; assay type: biochemical, Corynebacterium diphtheriae; details: for inhibition at 10 µM: read-out: inhibition of T domain membrane pore formation; for quenching of 3 kD CB-dextran: control without inhibitor about 70%
diphtheria toxin = diphtheria toxin (Corynephage beta, UniProt P00588); assay: biochemical; assay type: biochemical, Corynebacterium diphtheriae; details: for inhibition of 3 kD dextran release / pore formation: relative to release in absence of target agent; for inhibition of membrane pore formation (in words): whole diphtheria toxin; for quenching of the fluorescence of the 3 kD dextran: 10 μM inhibitor added before toxin, 3 kD CB-dextran, pH 4.5, control without agent about 75%; for inhibition at 10 µM: read-out: inhibition of 3 kD dextran release / pore formation
[2] = test system: diphtheria toxin translocation across Vero cell membranes; details: Falnes and Olsnes 1995; cited from earlier work
[3] = 10 μM inhibitor, about 5 μg of T domain
[4] = 10 μM inhibitor, 1.0 μg of toxin

Sequence of T domain of diphtheria toxin (P00588 234-410 limits assumed): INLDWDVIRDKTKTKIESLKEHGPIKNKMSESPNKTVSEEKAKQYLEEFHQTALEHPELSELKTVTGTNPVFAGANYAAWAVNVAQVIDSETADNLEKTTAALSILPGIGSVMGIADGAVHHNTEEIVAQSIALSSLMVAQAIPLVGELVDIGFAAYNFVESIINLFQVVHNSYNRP
Sequence of diphtheria toxin (P00588 33-567 limits assumed): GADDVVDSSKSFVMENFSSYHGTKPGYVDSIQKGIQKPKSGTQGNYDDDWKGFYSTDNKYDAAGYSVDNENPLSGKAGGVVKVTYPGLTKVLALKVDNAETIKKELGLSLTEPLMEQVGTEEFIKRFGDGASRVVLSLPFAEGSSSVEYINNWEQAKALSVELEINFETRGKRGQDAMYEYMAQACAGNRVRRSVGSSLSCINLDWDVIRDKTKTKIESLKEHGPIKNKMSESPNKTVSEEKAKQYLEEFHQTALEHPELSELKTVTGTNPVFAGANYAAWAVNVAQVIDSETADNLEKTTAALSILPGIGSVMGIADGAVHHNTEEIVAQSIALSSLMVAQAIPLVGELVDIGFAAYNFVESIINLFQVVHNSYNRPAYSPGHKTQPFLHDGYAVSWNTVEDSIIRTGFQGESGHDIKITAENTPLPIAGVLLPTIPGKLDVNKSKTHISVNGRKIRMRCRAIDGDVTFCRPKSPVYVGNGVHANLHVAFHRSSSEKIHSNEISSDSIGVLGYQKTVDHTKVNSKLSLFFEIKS

SMILES: Nc1c(S(=O)(=O)O)cc(Nc2ccc(Nc3nc(Cl)nc(Nc4ccccc4S(=O)(=O)O)n3)c(S(=O)(=O)O)c2)c2c1C(=O)c1ccccc1C2=O [Cibacron Blue, Cibacron Blue F3G-A]
- inhibition of T domain membrane pore formation (in words) [1, 3]: somewhat less inhibition
- inhibition at 10 µM [1]: ~22%
- quenching for all the dextrans (diphtheria toxin; 10 μM inhibitor, 1.0 μg of toxin, all the dextrans): 0%
- inhibition of 3 kD dextran release / pore formation (diphtheria toxin; [4]): completely inhibited
- inhibition of membrane pore formation (in words) (diphtheria toxin; 10 μM inhibitor): Strong inhibition
- inhibition of diphtheria toxin translocation [2]: inhibitors of diphtheria toxin translocation

SMILES: O=C(Nc1cc(S(=O)(=O)[O-])cc2cc(S(=O)(=O)[O-])c(N=Nc3cc(Nc4nc(Cl)nc(Nc5ccc(S(=O)(=O)[O-])cc5)n4)ccc3S(=O)(=O)[O-])c(O)c12)c1ccccc1.[Na+].[Na+].[Na+].[Na+] [Cibacron Red, Cibacron brilliant red 3B-A]
- inhibition of T domain membrane pore formation (in words) [1, 3]: strong inhibition
- inhibition of T domain membrane pore formation ([1]; 10 μM inhibitor, about 5 μg of T domain, 3 kD CB-dextran): 87%
- quenching of 3 kD CB-dextran [1, 3]: about 9%
- quenching of the fluorescence of the 3 kD dextran (diphtheria toxin; 1.0 μg of toxin): 0%
- inhibition of 3 kD dextran release / pore formation (diphtheria toxin; [4]): 100%
- inhibition of membrane pore formation (in words) (diphtheria toxin; 10 μM inhibitor): strong inhibition

SMILES: O=S(=O)(O)c1cc(N=C=S)ccc1/C=C/c1ccc(N=C=S)cc1S(=O)(=O)O [DIDS]
- inhibition of diphtheria toxin translocation [2]: inhibitors of diphtheria toxin translocation

SMILES: COc1cc(S(=O)(=O)O)c2ccc3c(S(=O)(=O)O)cc(S(=O)(=O)O)c4ccc1c2c43 [MPT, 8-methoxy-pyrene 1,3,6-trisulfonic acid]
- diphtheria toxin pore formation inhibited (in words) (diphtheria toxin; MPT as entrapped reporter, higher toxin concentrations, MPT released less than 3 kD CB-dextran): inhibited

SMILES: CCN1C(=O)C=CC1=O [NEM]
- inhibition of diphtheria toxin translocation [2]: inhibitors of diphtheria toxin translocation

SMILES: O=S(=O)(O)c1ccc(N=Nc2ccc(N=Nc3c(O)c(S(=O)(=O)O)cc4cc(S(=O)(=O)O)ccc34)c(S(=O)(=O)O)c2)cc1 [Ponceau S, 3-hydroxy-4-[2-sulfo-4(4-sulfophenylazo)phenylazo]-2,7-naphthalenedisulfonic acid]
- inhibition of T domain membrane pore formation (in words) [1, 3]: strong inhibition
- quenching of 3 kD CB-dextran [1, 3]: about 20%
- inhibition at 10 µM [1]: ~70%
- quenching of the fluorescence of the 3 kD dextran (diphtheria toxin; 1.0 μg of toxin): about 25%
- inhibition of membrane pore formation (in words) (diphtheria toxin; 10 μM inhibitor): moderate inhibition
- inhibition at 10 µM (diphtheria toxin): ~67%

SMILES: O=S(=O)([O-])c1ccc2c(N=Nc3ccc(S(=O)(=O)[O-])c4ccccc34)c(O)c(S(=O)(=O)[O-])cc2c1.[Na+].[Na+].[Na+] [amaranth, 3-Hydroxy-4-[(4-sulfo-1-naphthalenyl)azo]2,7-naphthalenedisulfonic acid trisodium salt]
- quenching of the fluorescence of the 3 kD dextran (diphtheria toxin; 1.0 μg of toxin): about 50%
- inhibition of membrane pore formation (in words) (diphtheria toxin; 10 μM inhibitor): weak inhibitor
- inhibition at 10 µM (diphtheria toxin): ~30%

Source: patent US6180356A (priority 1998, dated 2001)
